Data set [1] in a line: Acute toxicity of pure Gelsemium alkaloids in mice. The following applies: both, Kunming, mouse, in vivo, ip, 30 mg/kg.
The format of data set [2] is in vivo, human. The settings on record: victim serum, UPLC-Q Exactive MS/MS.
Data set [3] can be described thus: Detection of toxic alkaloids in mouse plasma after oral G. elegans extract. The settings on record: mice, oral G. elegans 95% ethanolic extract 200 mg/kg, blood 5 min after gavage. In kind it is in vivo, Kunming mice.
In the next data set the test system is mice. Briefly: Respiratory function by whole-body plethysmography. In kind it is in vivo, C57BL/6J mice. The settings on record: 0.22 mg/kg intraperitoneal.
A short description of data set [4]: Quantitative analysis of gelsenicine in medulla. The format is in vivo, C57BL/6J mice. The following applies: 1 mg/kg intraperitoneal.
Another data set has as its system VRG neurons. Briefly: Whole-cell recording of spontaneous action potentials in VRG neurons. In kind it is cell-based, C57BL/6J mice.
The subject of a further data set is CA1 pyramidal neurons. Briefly: Whole-cell recording in hippocampal CA1 pyramidal neurons. The format is cell-based, C57BL/6J mice.
The test system of data set [5] is gelsenicine (1)-poisoned mice. Briefly: Antidote screening: survival of gelsenicine-poisoned mice. The format is in vivo, Kunming mice. The following applies: gelsenicine 0.22 mg/kg i.p.
For data set [6] the following is noted: cited from earlier work.

Regarding `CCC1=N[C@H]2C[C@@]3(C(=O)N(OC)c4ccccc43)[C@H]3C[C@@H]1[C@@H]2CO3` [Compound 1, gelsenicine], in data set [1], the 50% lethal dose (LD50) (commonly the dose expected to kill half of the subjects tested) at 7 days came out at 0.14 mg/kg. Further, the “Detection in the clinical blood sample” value in [2] is on record as “clearly detected”. For the same compound, in data set [3], the Detection in plasma entry is on record as “detected in the plasma”. In addition, the “Time to severe respiratory distress after injection” value with mice was 5 to 10 min. Also, the “Peak expiratory flow, peak inspiratory flow, frequency, tidal volume and minute ventilation” value in the data set with mice (vs saline) is recorded as “significant reduction”. The Distribution to medulla result in data set [4] (C57BL/6 mice, 5 and 10 min) is “quickly distributed to medulla at 5 min, and sustained until 10 min”. Moreover, the Time of death entry in data set [4] (mice) is “around 10 min”. Further, the “Decrease of action potential firing rate” value in the data set on VRG neurons (VRG neurons, 1 μmol/L) is “about 60%”; in the data set on VRG neurons (VRG neurons, 2 μmol/L), “about 70%”. The “Effect on action potential firing” value in the data set on VRG neurons (VRG neurons, 0.3 and 0.6 μmol/L) is reported as “did not have an inhibitory effect”; in the data set with CA1 pyramidal neurons (CA1 pyramidal neurons, 1 and 2 μmol/L), “failed to show an inhibitory effect”. In addition, the “Effect on firing rate of picrotoxin-treated VRG neurons” value with VRG neurons (gelsenicine 1 μmol/L in the presence of picrotoxin 50 μmol/L) is reported as “did not affect the firing rate”. The “Concentration at which action potentials were suppressed” value in the data set on CA1 pyramidal neurons (CA1 pyramidal neurons) was not below 5 µmol/L. The “Effect on miniature inhibitory synaptic currents (mIPSCs)” value in the data set on CA1 pyramidal neurons (hippocampus CA1 region, 5 μmol/L) is on record as “increased the amplitude”. Also, in [5] (mice, no antidote), the “Time of death after administration” value was “around 15 min”.
In data set [1], `C/C=C1\CN(C)[C@H]2C[C@@]3(C(=O)N(OC)c4ccccc43)[C@H]3C[C@@H]1[C@@H]2CO3` [Compound 17, humantenine] showed a 50% lethal dose (LD50) at 7 days of 7.11 mg/kg. For the same compound, in data set [2], the “Detection in the clinical blood sample” value is “clearly detected”. Also, the Detection in plasma result in data set [3] was “detected in the plasma”.
With `C=C[C@]12CN(C)[C@@H]3[C@H]4CO[C@H](C[C@H]41)[C@]1(C(=O)Nc4ccccc41)[C@@H]32` [Compound 24, gelsemine], the “Detection in the clinical blood sample” value in [2] was “could also be detected”.
Turning to `C=C[C@@]12CN(C)[C@H]3C[C@]14C(=Nc1ccccc14)[C@@H]1C[C@@H]2[C@@H]3CO1` [Compound 32, koumine], in data set [1], the LD50 at 7 days is more than 30 mg/kg. The “Detection in the clinical blood sample” value in data set [2] was “could also be detected”.
As to `CCC1(C)CC(=O)NC(=O)C1` [bemegride], the “Survival rate of poisoned mice” value in [5] (antidote 6.5 mg/kg i.p.) turned out to be 30%. For the same compound, in data set [6], the “Time to peak concentration and passage into the brain” value is given as not above 30 min.
For the compound `CN1CCc2cc3c(cc2[C@H]1[C@@H]1OC(=O)c2c1ccc1c2OCO1)OCO3` [bicuculline, reference compound], the “Effect on firing of VRG neurons inhibited by gelsenicine” value in the data set with VRG neurons (bicuculline 20 μmol/L after gelsenicine 1 μmol/L) is on record as “restoring the normal firing rate”.
With `CCOC(=O)c1ncn2c1CN(C)C(=O)c1cc(F)ccc1-2` [flumazenil], the “Survival rate of poisoned mice” value in data set [5] (antidote 3 mg/kg i.p.) is on record as 50%. Moreover, the “Time to peak level” value in data set [6] (oral or intravenous, clinical and animal studies) is recorded as not above 5 min.
As to `O=C1C=C2C=C[C@@H]3C[C@@]2(O1)[C@H]1CCCCN31` [securinine], the “Survival rate of poisoned mice” value in data set [5] (antidote 3 mg/kg i.p.) was found to be 50%. In addition, in [6] (intraperitoneal injection), the “Time to peak concentration in plasma” value is recorded as not above 9 min and the “Time to peak concentration in the brain” value is listed as not above 30 min.
Take picrotoxin [reference compound]: in the data set on VRG neurons (picrotoxin 50 μmol/L alone), the “Effect on VRG neuron activity (firing rate vs baseline)” value was “robust increase in activity”.

Values taken from publication PMC12491680 (Acta Pharmaceutica Sinica. B, 2025).
